The subject of this test is CD2F1 mice, L1210 leukemia ip, survival T/C. As to the kind of experiment: NCI In Vivo Anticancer Drug Screen. Data for tumor model L1210 Leukemia (intraperitoneal) in CD2F1 (CDF1) mice. The note with it: higher = longer survival. Summed up: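 Mice carrying a transplanted tumor received test compound or vehicle alone. The value is the measurement in the treated group divided by that in the vehicle-treated control group.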

Where [1] appears, read: endpoint: mean survival time, dose: 100.0 mg/kg/injection, schedule: Q01DX009 (ip), vehicle: saline with Tween-80.
The mark [2] stands for this setting: endpoint: mean survival time, dose: 100.0 mg/kg/injection, schedule: Q04DX003 (ip), vehicle: saline with Tween-80.
Setting [3] is: endpoint: mean survival time, dose: 200.0 mg/kg/injection, schedule: Q01DX009 (ip), vehicle: saline with Tween-80.
[4] abbreviates: endpoint: mean survival time, dose: 200.0 mg/kg/injection, schedule: Q04DX003 (ip), vehicle: saline with Tween-80.
Setting [5] is: endpoint: mean survival time, dose: 400.0 mg/kg/injection, schedule: Q01DX009 (ip), vehicle: saline with Tween-80.
Where [6] appears, read: endpoint: mean survival time, dose: 25.0 mg/kg/injection, schedule: Q01DX009 (ip), vehicle: saline with Tween-80.
The mark [7] stands for this setting: endpoint: mean survival time, dose: 50.0 mg/kg/injection, schedule: Q01DX009 (ip), vehicle: saline with Tween-80.
Setting [8] is: endpoint: mean survival time, dose: 400.0 mg/kg/injection, schedule: Q04DX003 (ip), vehicle: saline with Tween-80.

SMILES strings stand for the structures. Values joined by “and” are separate entries in the source; they are usually repeats but may differ in a detail not shown here. Identical values can stand only once. Inconclusive results and toxic doses are left out.

On to `CC(C)C(N)C(=O)Nc1nncs1` (stereo not drawn), for which the T/C (endpoint: mean survival time, dose: 25.0 mg/kg/injection, schedule: Q01DX009 (ip), vehicle: saline) was 103 % of control; the T/C (endpoint: mean survival time, dose: 50.0 mg/kg/injection, schedule: Q01DX009 (ip), vehicle: saline) is 110 % of control; the T/C (endpoint: mean survival time, dose: 100.0 mg/kg/injection, schedule: Q01DX009 (ip), vehicle: saline) is 166 % of control; the T/C (endpoint: mean survival time, dose: 200.0 mg/kg/injection, schedule: Q01DX009 (ip), vehicle: saline) is 117 % of control and 97 % of control; the T/C (endpoint: mean survival time, dose: 400.0 mg/kg/injection, schedule: Q01DX009 (ip), vehicle: saline) was 89 % of control and 90 % of control; the T/C (endpoint: median survival time, dose: 12.5 mg/kg/injection, schedule: Q01DX009 (ip), vehicle: saline) was 94 % of control. In addition, the T/C is 109 % of control and 112 % of control (endpoint: median survival time, dose: 25.0 mg/kg/injection, schedule: Q01DX009 (ip), vehicle: saline); 151 % of control (endpoint: median survival time, dose: 50.0 mg/kg/injection, schedule: Q01DX009 (ip), vehicle: saline); 158 % of control (endpoint: median survival time, dose: 100.0 mg/kg/injection, schedule: Q01DX009 (ip), vehicle: saline); 95 % of control (endpoint: median survival time, dose: 400.0 mg/kg/injection, schedule: Q01DX009 (ip), vehicle: saline).
Turning to `CC1=C(c2ccccc2)C(=O)OC1=O`, the T/C runs as follows: (endpoint: mean survival time, dose: 100.0 mg/kg/injection, schedule: Q04DX002 (ip), vehicle: other) 98 % of control; (endpoint: mean survival time, dose: 200.0 mg/kg/injection, schedule: Q04DX002 (ip), vehicle: other) 103 % of control; (endpoint: mean survival time, dose: 400.0 mg/kg/injection, schedule: Q04DX002 (ip), vehicle: other) 107 % of control.
Consider `CN(C)C=Nc1c(Cl)cccc1Cl`, for which the T/C was 100 % of control (endpoint: mean survival time, dose: 50.0 mg/kg/injection, schedule: Q01DX001 (ip), vehicle: saline); 103 % of control (endpoint: mean survival time, dose: 100.0 mg/kg/injection, schedule: Q01DX001 (ip), vehicle: saline); 97 % of control (endpoint: mean survival time, dose: 200.0 mg/kg/injection, schedule: Q01DX001 (ip), vehicle: saline); 106 % of control (endpoint: mean survival time, dose: 400.0 mg/kg/injection, schedule: Q01DX001 (ip), vehicle: saline).
As for `O=[n+]1cc2ccccn2cc1-c1ccccc1`, the T/C under setting [1] was 97 % of control; the T/C under setting [2] is 104 % of control; the T/C under setting [3] was 101 % of control; the T/C under setting [4] is 104 % of control; the T/C under setting [5] was 101 % of control.
On to `COc1cc2cc(c1Cl)N(C)C(=O)CC(OC(=O)C(C)N(C)C(=O)C(C)C)C1(C)OC1C(C)C1CC(O)(NC(=O)O1)C(OC)/C=C/C=C(C)C2OC` (stereo not drawn), for which the T/C is, setting by setting: (endpoint: median survival time, dose: 4.0 micrograms/kg/injection, schedule: Q01DX009 (ip), vehicle: Klucel (hydroxypropylcellulose) (HPC)) 104 % of control; (endpoint: median survival time, dose: 8.0 micrograms/kg/injection, schedule: Q01DX009 (ip), vehicle: Klucel (hydroxypropylcellulose) (HPC)) 112 % of control; (endpoint: median survival time, dose: 16.0 micrograms/kg/injection, schedule: Q01DX009 (ip), vehicle: Klucel (hydroxypropylcellulose) (HPC)) 112 % of control; (endpoint: median survival time, dose: 64.0 micrograms/kg/injection, schedule: Q01DX009 (ip), vehicle: Klucel (hydroxypropylcellulose) (HPC)) 105 % of control.
For `O=S(=O)(Oc1ccccc1)c1c(F)c(F)c(F)c(F)c1F`, the T/C is, setting by setting: under setting [6], 94 % of control; under setting [7], 94 % of control; under setting [1], 90 % of control; under setting [2], 95 % of control.
Regarding `O=C(Nc1ccccc1)OCC1CC2C=CC1C2` (stereo not drawn), the T/C was 111 % of control (endpoint: mean survival time, dose: 75.0 mg/kg/injection, schedule: Q01DX001 (ip), vehicle: saline with Tween-80); 94 % of control (endpoint: mean survival time, dose: 150.0 mg/kg/injection, schedule: Q01DX001 (ip), vehicle: saline with Tween-80); 94 % of control (endpoint: mean survival time, dose: 300.0 mg/kg/injection, schedule: Q01DX001 (ip), vehicle: saline with Tween-80).
On to `O=C1C=CN(C2OC(COC(=O)c3ccccc3)C(O)C2O)C(=O)C1` (stereo not drawn), for which the T/C is 168 % of control (endpoint: median survival time, dose: 67.0 mg/kg/injection, schedule: Q01DX009 (ip), vehicle: saline + Tween-80 + alcohol); 169 % of control (endpoint: median survival time, dose: 100.0 mg/kg/injection, schedule: Q01DX009 (ip), vehicle: saline + Tween-80 + alcohol); 165 % of control (endpoint: median survival time, dose: 150.0 mg/kg/injection, schedule: Q01DX009 (ip), vehicle: saline + Tween-80 + alcohol); 161 % of control (endpoint: median survival time, dose: 225.0 mg/kg/injection, schedule: Q01DX009 (ip), vehicle: saline + Tween-80 + alcohol).
On to `CC(=O)O[C@@H]1C[C@H](C)CC[C@H]1C(C)C`, for which the T/C under setting [2] is 98 % of control and the T/C under setting [4] was 89 % of control.
For the compound `COc1ccc(C(=O)c2ncccc2C(=O)O)cc1OC`, the T/C runs as follows: (endpoint: mean survival time, dose: 12.5 mg/kg/injection, schedule: Q01DX009 (ip), vehicle: other) 98 % of control; (endpoint: mean survival time, dose: 25.0 mg/kg/injection, schedule: Q01DX009 (ip), vehicle: other) 104 % of control; (endpoint: mean survival time, dose: 50.0 mg/kg/injection, schedule: Q01DX009 (ip), vehicle: other) 104 % of control; (endpoint: mean survival time, dose: 100.0 mg/kg/injection, schedule: Q01DX009 (ip), vehicle: other) 104 % of control; (endpoint: mean survival time, dose: 200.0 mg/kg/injection, schedule: Q01DX009 (ip), vehicle: other) 105 % of control.
For the compound `CSC(=O)C(=O)SC`, the T/C is, setting by setting: (endpoint: mean survival time, dose: 50.0 mg/kg/injection, schedule: Q01DX001 (ip), vehicle: saline with Tween-80) 100 % of control; (endpoint: mean survival time, dose: 100.0 mg/kg/injection, schedule: Q01DX001 (ip), vehicle: saline with Tween-80) 108 % of control.
In the case of `CCCCCCCCCCCCCC[N+](C)(C)Cc1cc(=O)c(O)co1`, the T/C (endpoint: mean survival time, dose: 25.0 mg/kg/injection, schedule: Q04DX003 (ip), vehicle: Klucel (hydroxypropylcellulose) (HPC)) is 97 % of control; the T/C (endpoint: mean survival time, dose: 50.0 mg/kg/injection, schedule: Q04DX003 (ip), vehicle: Klucel (hydroxypropylcellulose) (HPC)) was 109 % of control; the T/C (endpoint: mean survival time, dose: 100.0 mg/kg/injection, schedule: Q04DX003 (ip), vehicle: Klucel (hydroxypropylcellulose) (HPC)) was 109 % of control; the T/C under setting [2] was 87 % of control.
As for `CC[n+]1ccc(Nc2ccc(/C=C/c3ccc4cc(Nc5cc[n+](CC)cc5)ccc4[n+]3CC)cc2)cc1`, the T/C was 98 % of control (endpoint: mean survival time, dose: 2.5 mg/kg/injection, schedule: Q01DX009 (oral), vehicle: saline); 102 % of control (endpoint: mean survival time, dose: 5.0 mg/kg/injection, schedule: Q01DX009 (oral), vehicle: saline); 88 % of control (endpoint: mean survival time, dose: 10.0 mg/kg/injection, schedule: Q01DX009 (oral), vehicle: saline).
For `O=C(O)C1C2OC3C(OC(=O)C31)C2Br` (stereo not drawn), the T/C under setting [1] is 96 % of control; the T/C under setting [2] is 91 % of control; the T/C under setting [3] is 93 % of control; the T/C under setting [4] is 89 % of control; the T/C under setting [5] is 91 % of control; the T/C under setting [8] was 89 % of control.
`O=C1C=CC(O)CCC1` (stereo not drawn) (tested in a mixture with another compound): the T/C by setting is: under setting [2], 101 % of control; under setting [4], 101 % of control; under setting [8], 97 % of control.
As for `N#CC(OC(=O)c1ccccc1)c1cccc([N+](=O)[O-])c1` (stereo not drawn), the T/C reads like this: under setting [1], 98 % of control; under setting [2], 101 % of control; under setting [3], 96 % of control; under setting [4], 96 % of control; under setting [8], 100 % of control.
In the case of `O=C(Nc1ccc(S(=O)(=O)N2CCCCC2)cc1)OC(c1ccccc1)c1ccccc1`, the T/C was 103 % of control (endpoint: mean survival time, dose: 5.0 mg/kg/injection, schedule: Q01DX001 (ip), vehicle: other); 100 % of control (endpoint: mean survival time, dose: 10.0 mg/kg/injection, schedule: Q01DX001 (ip), vehicle: other); 93 % of control (endpoint: mean survival time, dose: 20.0 mg/kg/injection, schedule: Q01DX001 (ip), vehicle: other); 100 % of control (endpoint: mean survival time, dose: 40.0 mg/kg/injection, schedule: Q01DX001 (ip), vehicle: other); 102 % of control (endpoint: mean survival time, dose: 80.0 mg/kg/injection, schedule: Q01DX001 (ip), vehicle: other).
On to `N#Cc1nc(C#N)c(Sc2ccccc2)c(Sc2ccccc2)c1Sc1ccccc1`, for which the T/C runs as follows: (endpoint: mean survival time, dose: 3.12 mg/kg/injection, schedule: Q01DX009 (ip), vehicle: saline with Tween-80) 103 % of control and 104 % of control; (endpoint: mean survival time, dose: 6.25 mg/kg/injection, schedule: Q01DX009 (ip), vehicle: saline with Tween-80) 94 % of control and 100 % of control; (endpoint: mean survival time, dose: 12.5 mg/kg/injection, schedule: Q01DX009 (ip), vehicle: saline with Tween-80) 94 % of control; under setting [6], 96 % of control and 102 % of control; under setting [7], 90 % of control and 102 % of control; under setting [1], 96 % of control and 103 % of control.

Source of the values: PubChem BioAssay AID256 (DTP/NCI, 2004).
